The values below come from patent publication US6838479B2, “Amidine inhibitors of serine proteases” (Genentech, Inc., priority 2000, dated 2005).

What all share (type): biochemical
For test [1], the target named is tissue factor/factor VIIa (Homo sapiens, UniProt P08709). Nature of the test: Tissue Factor/Factor VIIa antagonist assay (chromogenic, Ki). As to conditions: 10 nM VIIa, 30 nM TF, Chromozym-tPA 1.33 mM; read-out: binding affinity to serine proteases: VIIa. As to the method:
Tissue Factor/Factor VIIa Antagonist Assay
This procedure is used to determine the constant of inhibition (Ki) for a sample compound of the invention.
Procedure • 1. Prepare a solution of 2 μg/mL (90 nM) tissue factor and 1.5 μg/mL (30 nM) factor VIIa in assay buffer with CaCl2. • 2. Incubate for 15 minutes at room temperature. • 3. Add 50 μL sample to each well. • 4. Add 50 μL tissue factor/factor VIIa solution to each well. • 5. Incubate for 15 minutes at room temperature with gentle agitation. • 6. Add 50 μL substrate to each well. • 7. Agitate plate for 20-25 sec. • 8. Monitor absorbance at 405 nm every 10 see for a total of 5 minutes at room temperature. • 9. Calculate Vmax over 10 points.

The target of test [2] is human Plasma Kallikrein (Homo sapiens, UniProt P03952). Nature of the test: Plasma Kallikrein assay (chromogenic, Ki). As to conditions: 1.5 nM plasma kallikrein, S-2302 0.3 mM; read-out: binding affinity to serine proteases: kallikrein. As to the method:
(§1) Factor Xa, Thrombin, and Plasma Kallikrein Assays
(§2) These procedures are used to determine the constant of inhibition (Ki) for a sample compound of the invention.
(§3) Procedure • 1. Add 50 μL sample to each well. • 2. Add 50 μL appropriately diluted coagulation factor to each well. • 3. Incubate for 5 minutes at room temperature with gentle agitation. • 4. Add 50 μL appropriately diluted substrate to each well. • 5. Agitate plate for 20-25 sec. • 6. Monitor absorbance at 405 nm every 10 sec for a total of 5 minutes at room temperature. • 7. Calculate Vmax over 10 points.

Test [3] concerns the target plasmin (Homo sapiens, UniProt P00747). Nature of the test: Plasmin binding affinity. As to conditions: read-out: binding affinity to serine proteases: plasmin.
Test [4] addresses T1, trypsin (Bos taurus, UniProt P00760).
T1 sequence (P00760 24-246): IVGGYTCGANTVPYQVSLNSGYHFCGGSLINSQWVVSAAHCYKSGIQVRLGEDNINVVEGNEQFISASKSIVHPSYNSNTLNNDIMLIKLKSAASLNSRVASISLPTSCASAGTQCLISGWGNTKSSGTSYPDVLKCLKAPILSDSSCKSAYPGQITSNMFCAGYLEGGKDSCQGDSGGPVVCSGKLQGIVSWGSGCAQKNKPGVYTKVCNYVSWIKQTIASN
Nature of the test: Trypsin binding affinity. As to conditions: read-out: binding affinity to serine proteases: trypsin.

In test [5] the target is T2, human Factor Xa (Homo sapiens, UniProt P00742).
T2 construct: This complex converts factor X to Xa
In words: Factor Xa assay (chromogenic, Ki). As to conditions: 3.3 nM Xa, S-2222 0.5 mM; read-out: binding affinity to serine proteases: Xa. The procedure: as §1, §2, §3

In test [6] the target is T3, human Thrombin (Homo sapiens, UniProt P00734).
T3 construct: rapidly converts prothrombin to thrombin
Nature of the test: Thrombin assay (chromogenic, Ki). As to conditions: 8.2 nM thrombin, S-2266 0.3 mM; read-out: binding affinity to serine proteases: thrombin. As to the method: as §1, §2, §3

Values joined by “and” are separate entries in the source; they are usually repeats but may differ in a detail not shown here. Equal values may be shown once.

Chain of plasmin (P00747 581-810 limits assumed, species assumed): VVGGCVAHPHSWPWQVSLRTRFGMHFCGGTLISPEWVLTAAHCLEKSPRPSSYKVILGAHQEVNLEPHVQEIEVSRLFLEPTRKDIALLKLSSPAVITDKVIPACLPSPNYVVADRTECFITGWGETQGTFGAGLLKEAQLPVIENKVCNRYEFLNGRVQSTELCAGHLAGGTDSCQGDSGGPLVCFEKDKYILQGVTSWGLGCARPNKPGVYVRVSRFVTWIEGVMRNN
Chain of plasmin (P00747 97-580 partner limits assumed, species assumed): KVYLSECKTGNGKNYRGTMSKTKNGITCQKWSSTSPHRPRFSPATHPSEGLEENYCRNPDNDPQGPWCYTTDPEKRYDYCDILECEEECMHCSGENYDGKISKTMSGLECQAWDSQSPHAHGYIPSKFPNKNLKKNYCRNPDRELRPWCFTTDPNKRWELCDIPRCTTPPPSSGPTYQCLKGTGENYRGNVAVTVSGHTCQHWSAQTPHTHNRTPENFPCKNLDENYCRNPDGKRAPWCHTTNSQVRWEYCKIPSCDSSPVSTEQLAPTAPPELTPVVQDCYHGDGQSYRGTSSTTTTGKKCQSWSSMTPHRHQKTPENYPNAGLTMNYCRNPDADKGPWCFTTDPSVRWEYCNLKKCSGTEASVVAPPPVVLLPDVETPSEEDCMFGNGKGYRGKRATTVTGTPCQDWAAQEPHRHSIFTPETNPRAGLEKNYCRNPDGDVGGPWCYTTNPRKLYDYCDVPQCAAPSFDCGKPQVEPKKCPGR
T2 sequence (P00742 235-488 limits assumed): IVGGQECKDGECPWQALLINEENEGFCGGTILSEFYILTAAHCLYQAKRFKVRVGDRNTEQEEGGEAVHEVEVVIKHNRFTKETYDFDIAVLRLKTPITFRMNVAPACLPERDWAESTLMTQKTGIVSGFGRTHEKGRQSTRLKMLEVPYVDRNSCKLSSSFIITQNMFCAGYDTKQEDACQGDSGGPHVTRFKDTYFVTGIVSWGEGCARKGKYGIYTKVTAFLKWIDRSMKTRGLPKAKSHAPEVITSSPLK
T2 sequence (P00742 41-179 limits assumed): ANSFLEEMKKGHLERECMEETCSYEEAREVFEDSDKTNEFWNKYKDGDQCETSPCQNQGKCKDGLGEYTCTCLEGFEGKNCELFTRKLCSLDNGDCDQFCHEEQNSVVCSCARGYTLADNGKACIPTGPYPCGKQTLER
Chain of human Plasma Kallikrein (P03952 391-638 limits assumed): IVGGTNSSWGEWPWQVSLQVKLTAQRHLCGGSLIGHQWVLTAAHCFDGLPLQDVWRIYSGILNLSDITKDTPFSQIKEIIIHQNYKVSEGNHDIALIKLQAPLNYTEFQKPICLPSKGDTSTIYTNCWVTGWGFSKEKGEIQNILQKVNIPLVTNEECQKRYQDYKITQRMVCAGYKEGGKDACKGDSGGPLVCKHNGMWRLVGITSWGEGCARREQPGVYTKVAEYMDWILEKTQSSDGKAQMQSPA
Chain of human Plasma Kallikrein (P03952 20-390 partner limits assumed): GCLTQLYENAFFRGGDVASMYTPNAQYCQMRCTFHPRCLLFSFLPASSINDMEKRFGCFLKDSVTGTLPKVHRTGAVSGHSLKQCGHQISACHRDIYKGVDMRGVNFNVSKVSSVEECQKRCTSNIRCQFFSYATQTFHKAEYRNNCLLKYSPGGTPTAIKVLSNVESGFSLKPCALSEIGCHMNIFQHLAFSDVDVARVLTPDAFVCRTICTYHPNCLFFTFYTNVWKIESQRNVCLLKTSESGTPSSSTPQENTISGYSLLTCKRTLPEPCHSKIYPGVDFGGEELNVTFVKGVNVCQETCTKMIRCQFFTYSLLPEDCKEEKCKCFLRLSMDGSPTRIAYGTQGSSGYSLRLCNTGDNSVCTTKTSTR
Chain of tissue factor/factor VIIa (P08709 213-466 limits assumed): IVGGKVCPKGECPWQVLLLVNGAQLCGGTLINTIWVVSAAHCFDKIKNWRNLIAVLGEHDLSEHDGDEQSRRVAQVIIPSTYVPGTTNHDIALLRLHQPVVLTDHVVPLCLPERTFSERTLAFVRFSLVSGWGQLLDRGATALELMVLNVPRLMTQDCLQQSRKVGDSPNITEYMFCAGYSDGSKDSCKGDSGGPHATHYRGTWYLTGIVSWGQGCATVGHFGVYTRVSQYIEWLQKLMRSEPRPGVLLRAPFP
Chain of tissue factor/factor VIIa (P08709 61-212 limits assumed): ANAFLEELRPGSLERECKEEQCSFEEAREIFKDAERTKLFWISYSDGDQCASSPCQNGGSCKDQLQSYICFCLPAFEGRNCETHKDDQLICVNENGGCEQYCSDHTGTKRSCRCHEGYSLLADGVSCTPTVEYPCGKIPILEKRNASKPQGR
Chain of tissue factor/factor VIIa (P13726 33-251 partner limits assumed): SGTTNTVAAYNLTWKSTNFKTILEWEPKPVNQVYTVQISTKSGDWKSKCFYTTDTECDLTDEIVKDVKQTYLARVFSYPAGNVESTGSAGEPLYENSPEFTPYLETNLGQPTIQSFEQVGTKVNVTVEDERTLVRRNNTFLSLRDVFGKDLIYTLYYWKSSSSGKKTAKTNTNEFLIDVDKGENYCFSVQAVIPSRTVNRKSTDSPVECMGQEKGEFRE

Turning to `CCCN1C[C@H](Oc2cccc(C(=N)N)c2)C[C@H]1C(=O)Nc1ccc(C(=N)N)cc1` [compound 1], the Ki in test [1] came to 7.8 µM; in test [2] it was 6.56 µM; in test [3], 7.36 µM; in test [4] it was 0.866 µM; in test [5], 0.297 µM; in test [6], 4.74 µM.
Regarding `N=C(N)c1ccc(NC(=O)[C@@H]2C[C@@H](Oc3cccc(C(=N)N)c3)CN2Cc2ccccc2[N+](=O)[O-])cc1` [compound 5], the Ki in test [1] was greater than 39 µM; in test [2], 16 µM; in test [3], 7 µM; in test [4] it was 2.14 µM; in test [5], 2.13 µM; in test [6], 14.5 µM.
On to `N=C(N)c1ccc(NC(=O)[C@@H]2C[C@@H](Oc3cccc(C(=N)N)c3)CN2C2CCCCC2)cc1` [compound 6], for which the Ki is greater than 39 µM in test [1]; 3.4 µM in test [2]; 15 µM in test [3]; 5.15 µM in test [4]; 2.41 µM in test [5].
As to `N=C(N)c1ccc(NC(=O)[C@@H]2C[C@@H](Oc3cccc(C(=N)N)c3)CN2Cc2ccccc2[N+](=O)[O-])cc1` [compound 7], the Ki in test [1] was greater than 39 µM; in test [2], 20 µM; in test [3], 7 µM; in test [4], 2.22 µM; in test [5], 2.49 µM; in test [6], 25 µM.
Turning to `COc1cc2c(cc1OC)CN(C(=O)[C@@H]1C[C@@H](Oc3cccc(C(=N)N)c3)CN1)CC2` [compound 11], the Ki was 0.979 µM in test [2]; 7.36 µM in test [3]; 0.607 µM in test [4]; 5.84 µM in test [5]; 0.875 µM in test [6].
Regarding `CC(=O)N1C[C@H](Oc2cccc(C(=N)N)c2)C[C@H]1C(=O)Nc1ccc(C(=N)N)cc1` [compound 14], the Ki in test [1] was greater than 39 µM; in test [3], greater than 24.5 µM; in test [4], 10.1 µM; in test [5] it was 6.61 µM; in test [6] it was greater than 36.2 µM.
`CN(Cc1ccccc1)C(=O)[C@@H]1C[C@@H](Oc2cccc(C(=N)N)c2)CN1Cc1ccccc1` [compound 15]: the Ki in test [1] was 156 µM; in test [2], 34.2 µM; in test [3], 15.4 µM; in test [4], 2.26 µM; in test [5], 6.8 µM; in test [6], 11 µM.
As for `CCCCCCN1C[C@H](Oc2cccc(C(=N)N)c2)C[C@H]1C(=O)Nc1ccc(C(=N)N)cc1` [compound 16], the Ki was greater than 39 µM in test [1]; 17 µM in test [2]; 12 µM in test [3]; 6.07 µM in test [4]; 6.81 µM in test [5]; 29 µM in test [6].
Take `N=C(N)c1cccc(O[C@@H]2C[C@@H](C(=O)Nc3ccc(Cl)cc3)N(C(=O)c3ccccc3)C2)c1` [compound 17]: the Ki is greater than 39 µM in test [1], greater than 33.8 µM in test [2], 3.6 µM in test [4] and 7.88 µM in test [5].
Consider `N=C(N)c1cccc(O[C@@H]2C[C@@H](C(=O)N3CCc4ccccc4C3)N(S(=O)(=O)c3ccccc3)C2)c1` [compound 21], for which the Ki is greater than 39 µM in test [1], 20.2 µM in test [4], 10.5 µM in test [5] and 14.5 µM in test [6].
Consider `N=C(N)c1ccc(NC(=O)[C@@H]2C[C@@H](Oc3cccc(C(=N)N)c3)CN2Cc2ccc([N+](=O)[O-])cc2)cc1` [compound 22], for which the Ki in test [1] was greater than 39 µM; in test [2] it was 3.4 µM; in test [3] it was 15 µM; in test [4] it was 7.76 µM; in test [5], 10.5 µM; in test [6] it was greater than 36 µM.
Take `C=CCOC(=O)[C@@H]1C[C@@H](Oc2cccc(C(=N)N)c2)CN1` [compound 27]: the Ki was 15.6 µM in test [1], greater than 24.6 µM in test [3], 14.1 µM in test [4] and 14 µM in test [5].
With `N=C(N)c1cccc(O[C@@H]2C[C@@H](C(=O)N3CCc4ccccc4C3)N(C(=O)c3ccccc3)C2)c1` [compound 32], the results for the Ki in test [1], in test [4] and in test [5] were greater than 399 µM, 7.84 µM and 15.3 µM, respectively.
As for `C=CCOC(=O)[C@@H]1C[C@@H](Oc2cccc(C(=N)N)c2)CN1C(=O)c1ccccc1` [compound 36], the Ki in test [2] is greater than 33.8 µM; in test [4] it was 4.26 µM; in test [5], 19.9 µM and 14 µM; in test [6] it was 21.7 µM.
Turning to `CS(=O)(=O)N1C[C@H](Oc2cccc(C(=N)N)c2)C[C@H]1C(=O)Nc1ccc(Cl)cc1` [compound 52], the Ki in test [1] was greater than 39 µM; in test [2], 27 µM; in test [3], greater than 24.5 µM; in test [4] it was 40.5 µM; in test [6], greater than 36.2 µM.
In the case of `C=CCOC(=O)[C@@H]1C[C@@H](Oc2cccc(C(=N)N)c2)CN1Cc1ccccc1` [compound 60], in test [4], the Ki is 4.99 µM.
With `N=C(N)c1cccc(O[C@@H]2C[C@@H](C(=O)O)N(Cc3ccccc3)C2)c1` [compound 70], the results for the Ki in test [1] and in test [5] were 156 µM and 105 µM, respectively.
For `N=C(N)c1cccc(O[C@H]2CN[C@H](C(=O)NCc3ccncc3)C2)c1` [compound 71], in that order: no less than 390 µM and 105 µM.
For `CC(C)[C@@H](NC(=O)[C@@H]1C[C@@H](Oc2cccc(C(=N)N)c2)CN1)C(=O)O` [compound 72], in that order: no less than 390 µM and 132 µM.
For `N=C(N)c1cccc(O[C@H]2CN[C@H](C(=O)N[C@@H](CCC(=O)O)C(=O)O)C2)c1` [compound 73], in that order: no less than 390 µM and 140 µM.
With `C=CCOC(=O)[C@@H]1C[C@@H](Oc2cccc(C(=N)N)c2)CN1S(=O)(=O)c1ccccc1` [compound 74], the values for the Ki in test [1] and in test [5] were greater than 195 µM and 140 µM, respectively.
In the case of `C[C@H](NC(=O)[C@@H]1C[C@@H](Oc2cccc(C(=N)N)c2)CN1)C(=O)O` [compound 75], the Ki is no less than 390 µM in test [1] and 140 µM in test [5].
For the compound `C=CCOC(=O)[C@@H]1C[C@@H](Oc2cccc(C(=N)N)c2)CN1C(C)=O` [compound 76], the Ki in test [2] is greater than 33.8 µM; in test [3] it was greater than 24.5 µM; in test [4] it was 30.3 µM; in test [6], greater than 36.2 µM.
As to `N=C(N)c1cccc(O[C@H]2CN[C@H](C(=O)Nc3ccccc3)C2)c1` [compound 79], the Ki in test [1] was 19 µM; in test [3], 24 µM; in test [4], 20 µM; in test [5] it was greater than 35 µM; in test [6], greater than 36 µM.
`COC(=O)[C@@H]1C[C@@H](Oc2cccc(C(=N)N)c2)CN1` [compound 80]: the Ki in test [1] was greater than 39 µM; in test [2] it was 55 µM; in test [3], greater than 24.6 µM; in test [4], 28.3 µM; in test [5], greater than 35.1 µM; in test [6] it was greater than 36.2 µM.
Take `CS(=O)(=O)N1C[C@H](Oc2cccc(C(=N)N)c2)C[C@H]1C(=O)O` [compound 81]: the Ki in test [1] is greater than 195 µM; in test [5] it was greater than 175 µM.
For `N=C(N)c1cccc(O[C@@H]2C[C@@H](C(=O)O)N(S(=O)(=O)c3ccccc3)C2)c1` [compound 82], in that order: greater than 195 µM and greater than 175 µM.
